This is an account of results in patent US20190328832A1, “ANTIMICROBIAL COMBINATIONS” (HELPERBY THERAPEUTICS LIMITED, priority 2016, published 2019).

For the assay, the system named is log phase NDM-1 Klebsiella Pneumoniae (BAA2473 strain). Description: Time-kill method over 24 hours against log phase NDM-1 Klebsiella pneumoniae (CFU counts). Format: cell-based. To be noted: perphenazine alone at 128 mg/L, FIG. 1. As to the method:
The objective of this example was to test the synergistic effect of perphenazine and colistin (in the form of colistimethate sodium) in combination against log phase NDM-1 Klebsiella Pneumoniae by time-kill methods over a time period of 24 hours. As described hereinabove, time-kill methods are another accepted test for ascertaining the presence or absence of synergy, and involve comparing the dynamic effect of a drug combination with each drug alone when assessing the effect on bacterial log or stationary-growth over time.
Materials and Methods • 1. Bacterial strain used: BAA2473 strain of Klebsiella pneumoniae • 2. Growth of bacteria: Log phase growth of BAA2473 was carried out according to known methods in the art, e.g. SOP R-005-00 Log Phase Growth of Bacteria. • 3. Compound preparation: • i. Perphenazine was ordered from Sigma Aldrich® UK. • ii. Colistin was obtained as Colistimethate sodium (Forest Laboratories UK 1 million I. U. 80 mg). • 4. The overnight culture was diluted with nutrient broth (Oxoid) to […] and 280 μl and 290 ul of the culture was added to each combination well and drug respectively, to make the final concentration of 300 μl. • 5. Incubation of the compounds with the bacterial suspension was carried out for 24 hours. At 0, 2, 4, 7 and 24 hours, CFU counts were performed to measure the kill effects of the drug combination.

Each structure is given as a SMILES string.

Turning to `OCCN1CCN(CCCN2c3ccccc3Sc3ccc(Cl)cc32)CC1` [perphenazine, 2-[4-[3-(2-chloro-10H-phenothiazin-10-yl)propyl]piperazin-1-yl]ethanol], the “effect against NDM-1 K. pneumoniae (time-kill, Log CFU/ml)” value was “little or no effect”.
